The data set relates to P-glycoprotein (Pgp, MDR1). The data set is described as follows: MDCKII-MDR1 permeability and Pgp efflux. Format: in vitro ADME. The note with it: dog.

For orientation: Papp A→B means how fast a substance crosses the layer from the apical side. Read a high Papp A→B as ready permeation. In general, Papp B→A refers to how fast a substance crosses the layer from the basolateral side. The term efflux ratio denotes a quotient of directional permeabilities that is used to spot active efflux.

As for `COCCc1ccc(OCC(O)CNC(C)C)cc1` (centres unmarked) [metoprolol], under “MDCK-MDR1”, the apparent permeability from apical to basolateral (Papp A→B) was found to be 28.6 ×10⁻⁶ cm/s, the Papp B→A was 28 ×10⁻⁶ cm/s and the efflux ratio amounted to 0.98. This compound also registered a recovery (MDCK-MDR1, recovery (%) A-B, MDCKII-MDR1, A-B) of 109%. This compound also returned a recovery (MDCK-MDR1, recovery (%) B-A, MDCKII-MDR1, B-A) of 97.4%.

For the origin of these results see PMC13349481 (ACS chemical biology, 2025).
